Reference: patent publication US12390423B2 (priority 2019, dated 2025)

Assays:
Format in all cases: cell-based, rat
INS-1 (832/13) cells [1] = assay: Fatty acid oxidation ([1-14C]-palmitate) in INS-1 (832/13) cells; settings: 25 μM AvoB, 0.5 mM palmitate-BSA/1 mM L-carnitine, 24 h
Description: FAO in cell lines was determined using established methods. […] [1-^14C]-palmitate was prepared and applied to cells as follows: purchased stock supplied in ethanol (PerkinElmer, MA, USA) was dried in vacuo and then re-suspended in a solution containing unlabeled carrier in BSA to yield a mixture of 7% BSA [w/v], 2.5 mM palmitate with [1-^14C]-palmitate at a final concentration of 10 μCi/mL. Following a 16 hour incubation at 37° C., the solution containing radiolabeled palmitate was diluted with respective serum free cell culture media (low glucose RPMI media for INS-1 (832/13) cells and low glucose DMEM for C2C12 myotubes) containing 1 mM L-carnitine to a final concentration of 0.3% BSA, 100 μM palmitate, and 0.4 μCi/mL [1-^14C]-palmitate. Following incubation of treated cells with [1-^14C]-palmitate, 400 μL of well media was transferred to acidification vials containing perchloric acid and capped with CO2 filter traps impregnated with 1M NaOH. […] The CO2 trap was transferred to scintillation vials containing 4 mL of scintillation fluid and complete FAO was quantified using a Tri-Carb 2910 TR liquid scintillation analyzer (PerkinElmer). The amount of radioactivity in the media was also determined after pelleting cells and debris (14,000×g, 10 min); this quantified acid soluble metabolites (ASMs), an indirect measure of incomplete FAO.

INS-1 (832/13) cells [2] = assay: Cytosolic calcium determination (fluo-3AM) in INS-1 (832/13) cells; settings: 0.5 mM palmitate, non-stimulatory glucose, AvoB 25 μM, ETO 100 μM, TMB-8 10 μM
Description: INS-1 (832/13) cells were treated as described for the FAO assays but also with metabolic modulators dichloroacetate (DCA) (1 mM) and trimetazidine (25 μM) as well as 10 μM endoplasmic reticulum calcium blocker 8-(N,N-Diethylamino)-octyl-3,4,5-trimethoxybenzoate HCl (TMB-8) (Sigma Aldrich) or 25 nM cyclosporin (Sigma Aldrich) in the presence of 0.5 mM palmitate/1 mM L-carnitine. Cytosolic calcium was measured in INS-1 (832/13) cells using fluo-3AM (Invitrogen, F1241) charged fluorescent dye that accumulates in the cytosol and emits green fluorescence after binding calcium ions. A stock solution of 10 mM fluo-3AM was diluted to 5 μM in fluo-3AM loading buffer (10 mM 4-(2-hydroxyethyl)-1-piperazineethanesulfonic acid (HEPES), 137 mM NaCl, […], 1 mM Na2HPO4, 5 mM glucose, and 0.5 mM MgCl2 (pH 7.4)]. After treatment, cells were incubated in fluo-3AM loading buffer for 30 min at 37° C. with gentle agitation after which cells were washed twice with PBS, trypsinized and collected for flow cytometry analysis. Cytosolic calcium was quantified by taking the mean green fluorescence values of live gated cells and normalizing to vehicle control.

[3] = system: AMPK activation and mitochondrial biogenesis; assay: Immunoblotting (pAMPKα, PGC-1α) and NAO mitochondrial mass in INS-1 (832/13) cells; settings: 25 μM AvoB, 24 h
Description: For all ROS studies, INS-1 (832/13) cells and C2C12 myotubes were treated with or without palmitate and FAO inhibitors for 24 h in low glucose cell culture media as described for the FAO assay. After treatment, cells were trypsinized and re-suspended in PBS containing 5 μM of the fluorescent dye MitoSOX® (Molecular Probes, Invitrogen) and allowed to incubate for 5-15 minutes in a humidified atmosphere containing 5% CO2 at 37° C. Cells were then washed in PBS, placed in a 96 well plate and fluorescence was measured by flow cytometry. ROS was quantified by normalizing the mean fluorescence values of live gated cells to vehicle control. Mitochondrial membrane potential (MMP) in INS-1 (832/13) and C2C12 myotubes was measured using the cationic fluorescent dye JC-1 (Molecular Probes). […] JC-1 fluoresces green in the cytosol where it exists as a monomer, after entering the mitochondria JC-1 monomers form J aggregates and fluoresce red, thus the red/green fluorescence ratio is used to determine MMP. […] Cells were then washed in PBS, placed in a 96 well plate and fluorescence was measured by flow cytometry. MMP was quantified by normalizing the mean fluorescence values of live gated cells to vehicle control. […] Cells were treated, washed and collected as described and incubated with 0.35 μM NAO and green fluorescence was measured using flow cytometry. […]

## avocatin B [AvoB]
INS-1 (832/13) cells [1]
  Complete FAO ([1-14C]-palmitate oxidation to CO2): inhibited complete FAO
INS-1 (832/13) cells [2]
  Cytosolic Ca2+ (Fluo-3AM): able to reduce cytosolic Ca^2+
[3]
  AMPK activation (pAMPKα-Thr172): independent of AMP-activated protein kinase (AMPK) activation
  Mitochondrial biogenesis (PGC-1α protein, NAO dye): independent
